{
  "source": "patent US8192962B2",
  "about": "“Processes for detecting toxic substances” (Daikin Industries, Ltd., priority 2001, dated 2012)",
  "test_system": "Energy system protein genes",
  "test": "DNA chip mRNA expression in yeast, energy system protein genes (Table 4)",
  "type": "cell-based, Saccharomyces cerevisiae S288C",
  "summary_of_the_method": "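Whole-genome yeast DNA chip hybridization (65° C., >12 h) of Cy-labeled cDNA from S288C cells exposed 2 h at 25° C. to a sub-lethal toxicant dose in YPD; value is intensity relative to chemical-free control.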",
  "data": [
    {"smiles": "CN(C)C(=S)SSC(=S)N(C)C", "note": "[(10), Tetramethylthiuram disulfide]", "values": [
      {"measurement": "The level of expressed mRNA in the presence of chemical substance/The level of expressed mRNA in the absence of chemical substance", "setting": "yeast gene YJL216C, cells incubated two hours with the chemical substance", "value": 1.3},
      {"measurement": "The level of expressed mRNA in the presence of chemical substance/The level of expressed mRNA in the absence of chemical substance", "setting": "yeast gene YJR009C", "value": 1.3},
      {"measurement": "The level of expressed mRNA in the presence of chemical substance/The level of expressed mRNA in the absence of chemical substance", "setting": "yeast gene YJR048W", "value": 1.5},
      {"measurement": "The level of expressed mRNA in the presence of chemical substance/The level of expressed mRNA in the absence of chemical substance", "setting": "yeast gene YJR121W, cells incubated two hours with the chemical substance", "value": 1.3},
      {"measurement": "The level of expressed mRNA in the presence of chemical substance/The level of expressed mRNA in the absence of chemical substance", "setting": "yeast gene YJR155W", "value": 18.8},
      {"measurement": "The level of expressed mRNA in the presence of chemical substance/The level of expressed mRNA in the absence of chemical substance", "setting": "yeast gene YKL016C, cells incubated two hours with the chemical substance", "value": 1.8},
      {"measurement": "The level of expressed mRNA in the presence of chemical substance/The level of expressed mRNA in the absence of chemical substance", "setting": "yeast gene YKL060C, cells incubated two hours with the chemical substance", "value": 0.8},
      {"measurement": "The level of expressed mRNA in the presence of chemical substance/The level of expressed mRNA in the absence of chemical substance", "setting": "yeast gene YKL141W, cells incubated two hours with the chemical substance", "value": 0.5},
      {"measurement": "The level of expressed mRNA in the presence of chemical substance/The level of expressed mRNA in the absence of chemical substance", "setting": "yeast gene YKL148C, cells incubated two hours with the chemical substance", "value": 1.7},
      {"measurement": "The level of expressed mRNA in the presence of chemical substance/The level of expressed mRNA in the absence of chemical substance", "setting": "yeast gene YKR009C, cells incubated two hours with the chemical substance", "value": 2.1},
      {"measurement": "The level of expressed mRNA in the presence of chemical substance/The level of expressed mRNA in the absence of chemical substance", "setting": "yeast gene YKR058W, cells incubated two hours with the chemical substance, 25° C., YPD medium", "value": 1.2},
      {"measurement": "The level of expressed mRNA in the presence of chemical substance/The level of expressed mRNA in the absence of chemical substance", "setting": "yeast gene YKR097W", "value": 3.3},
      {"measurement": "The level of expressed mRNA in the presence of chemical substance/The level of expressed mRNA in the absence of chemical substance", "setting": "yeast gene YLL041C, cells incubated two hours with the chemical substance", "value": 0.8},
      {"measurement": "The level of expressed mRNA in the presence of chemical substance/The level of expressed mRNA in the absence of chemical substance", "setting": "yeast gene YLR038C, cells incubated two hours with the chemical substance", "value": 0.9},
      {"measurement": "The level of expressed mRNA in the presence of chemical substance/The level of expressed mRNA in the absence of chemical substance", "setting": "yeast gene YLR044C, cells incubated two hours with the chemical substance", "value": 1.2},
      {"measurement": "The level of expressed mRNA in the presence of chemical substance/The level of expressed mRNA in the absence of chemical substance", "setting": "yeast gene YLR134W, cells incubated two hours with the chemical substance", "value": 0.7},
      {"measurement": "The level of expressed mRNA in the presence of chemical substance/The level of expressed mRNA in the absence of chemical substance", "setting": "yeast gene YLR258W, cells incubated two hours with the chemical substance", "value": 1.3},
      {"measurement": "The level of expressed mRNA in the presence of chemical substance/The level of expressed mRNA in the absence of chemical substance", "setting": "yeast gene YLR284C, cells incubated two hours with the chemical substance", "value": 0.9},
      {"measurement": "The level of expressed mRNA in the presence of chemical substance/The level of expressed mRNA in the absence of chemical substance", "setting": "yeast gene YLR295C, cells incubated two hours with the chemical substance, 25° C., YPD medium", "value": 1.2},
      {"measurement": "The level of expressed mRNA in the presence of chemical substance/The level of expressed mRNA in the absence of chemical substance", "setting": "yeast gene YLR304C, cells incubated two hours with the chemical substance", "value": 2.2},
      {"measurement": "The level of expressed mRNA in the presence of chemical substance/The level of expressed mRNA in the absence of chemical substance", "setting": "yeast gene YLR345W", "value": 4.0},
      {"measurement": "The level of expressed mRNA in the presence of chemical substance/The level of expressed mRNA in the absence of chemical substance", "setting": "yeast gene YLR354C, cells incubated two hours with the chemical substance", "value": 0.9},
      {"measurement": "The level of expressed mRNA in the presence of chemical substance/The level of expressed mRNA in the absence of chemical substance", "setting": "yeast gene YLR377C, cells incubated two hours with the chemical substance", "value": 1.6},
      {"measurement": "The level of expressed mRNA in the presence of chemical substance/The level of expressed mRNA in the absence of chemical substance", "setting": "yeast gene YLR395C, cells incubated two hours with the chemical substance", "value": 0.9},
      {"measurement": "The level of expressed mRNA in the presence of chemical substance/The level of expressed mRNA in the absence of chemical substance", "setting": "yeast gene YML087C", "value": 4.9},
      {"measurement": "The level of expressed mRNA in the presence of chemical substance/The level of expressed mRNA in the absence of chemical substance", "setting": "yeast gene YML120C, cells incubated two hours with the chemical substance", "value": 1.5},
      {"measurement": "The level of expressed mRNA in the presence of chemical substance/The level of expressed mRNA in the absence of chemical substance", "setting": "yeast gene YML129C, cells incubated two hours with the chemical substance", "value": 2.2},
      {"measurement": "The level of expressed mRNA in the presence of chemical substance/The level of expressed mRNA in the absence of chemical substance", "setting": "yeast gene YMR073C, cells incubated two hours with the chemical substance", "value": 1.2},
      {"measurement": "The level of expressed mRNA in the presence of chemical substance/The level of expressed mRNA in the absence of chemical substance", "setting": "yeast gene YMR118C", "value": 1.4},
      {"measurement": "The level of expressed mRNA in the presence of chemical substance/The level of expressed mRNA in the absence of chemical substance", "setting": "yeast gene YMR205C, cells incubated two hours with the chemical substance", "value": 0.8},
      {"measurement": "The level of expressed mRNA in the presence of chemical substance/The level of expressed mRNA in the absence of chemical substance", "setting": "yeast gene YMR261C, cells incubated two hours with the chemical substance", "value": 1.3},
      {"measurement": "The level of expressed mRNA in the presence of chemical substance/The level of expressed mRNA in the absence of chemical substance", "setting": "yeast gene YMR267W, cells incubated two hours with the chemical substance, 25° C., YPD medium", "value": 0.8},
      {"measurement": "The level of expressed mRNA in the presence of chemical substance/The level of expressed mRNA in the absence of chemical substance", "setting": "yeast gene YMR323W, cells incubated two hours with the chemical substance", "value": 1.3},
      {"measurement": "The level of expressed mRNA in the presence of chemical substance/The level of expressed mRNA in the absence of chemical substance", "setting": "yeast gene YNL071W", "value": 1.2},
      {"measurement": "The level of expressed mRNA in the presence of chemical substance/The level of expressed mRNA in the absence of chemical substance", "setting": "yeast gene YNL202W, cells incubated two hours with the chemical substance", "value": 1.1},
      {"measurement": "The level of expressed mRNA in the presence of chemical substance/The level of expressed mRNA in the absence of chemical substance", "setting": "yeast gene YNL241C", "value": 7.4},
      {"measurement": "The level of expressed mRNA in the presence of chemical substance/The level of expressed mRNA in the absence of chemical substance", "setting": "yeast gene YNL331C", "value": 36.3},
      {"measurement": "The level of expressed mRNA in the presence of chemical substance/The level of expressed mRNA in the absence of chemical substance", "setting": "yeast gene YOL086C, cells incubated two hours with the chemical substance", "value": 1.2},
      {"measurement": "The level of expressed mRNA in the presence of chemical substance/The level of expressed mRNA in the absence of chemical substance", "setting": "yeast gene YOL157C", "value": 4.8},
      {"measurement": "The level of expressed mRNA in the presence of chemical substance/The level of expressed mRNA in the absence of chemical substance", "setting": "yeast gene YOL165C", "value": 23.3},
      {"measurement": "The level of expressed mRNA in the presence of chemical substance/The level of expressed mRNA in the absence of chemical substance", "setting": "yeast gene YOR136W", "value": 3.4},
      {"measurement": "The level of expressed mRNA in the presence of chemical substance/The level of expressed mRNA in the absence of chemical substance", "setting": "yeast gene YOR142W, cells incubated two hours with the chemical substance", "value": 1.5},
      {"measurement": "The level of expressed mRNA in the presence of chemical substance/The level of expressed mRNA in the absence of chemical substance", "setting": "yeast gene YOR178C, cells incubated two hours with the chemical substance", "value": 1.7},
      {"measurement": "The level of expressed mRNA in the presence of chemical substance/The level of expressed mRNA in the absence of chemical substance", "setting": "yeast gene YOR388C, cells incubated two hours with the chemical substance", "value": 1.4},
      {"measurement": "The level of expressed mRNA in the presence of chemical substance/The level of expressed mRNA in the absence of chemical substance", "setting": "yeast gene YPL031C, cells incubated two hours with the chemical substance", "value": 1.4},
      {"measurement": "The level of expressed mRNA in the presence of chemical substance/The level of expressed mRNA in the absence of chemical substance", "setting": "yeast gene YPL061W, cells incubated two hours with the chemical substance", "value": 0.7},
      {"measurement": "The level of expressed mRNA in the presence of chemical substance/The level of expressed mRNA in the absence of chemical substance", "setting": "yeast gene YPL088W", "value": 2.8},
      {"measurement": "The level of expressed mRNA in the presence of chemical substance/The level of expressed mRNA in the absence of chemical substance", "setting": "yeast gene YPL171C", "value": 50.6},
      {"measurement": "The level of expressed mRNA in the presence of chemical substance/The level of expressed mRNA in the absence of chemical substance", "setting": "yeast gene YPL240C", "value": 2.6},
      {"measurement": "The level of expressed mRNA in the presence of chemical substance/The level of expressed mRNA in the absence of chemical substance", "setting": "yeast gene YPL262W, cells incubated two hours with the chemical substance", "value": 5.8},
      {"measurement": "The level of expressed mRNA in the presence of chemical substance/The level of expressed mRNA in the absence of chemical substance", "setting": "yeast gene YPL275W, cells incubated two hours with the chemical substance", "value": 1.2},
      {"measurement": "The level of expressed mRNA in the presence of chemical substance/The level of expressed mRNA in the absence of chemical substance", "setting": "yeast gene YPL276W, cells incubated two hours with the chemical substance", "value": 1.8},
      {"measurement": "The level of expressed mRNA in the presence of chemical substance/The level of expressed mRNA in the absence of chemical substance", "setting": "yeast gene YPR048W, cells incubated two hours with the chemical substance", "value": 2.1},
      {"measurement": "The level of expressed mRNA in the presence of chemical substance/The level of expressed mRNA in the absence of chemical substance", "setting": "yeast gene YPR184W, cells incubated two hours with the chemical substance", "value": 3.2}
    ]}
  ]
}
